# Laboratory results from patent US9193978B2, “Production of alkenes by combined enzymatic conversion of 3-hydroxyalkanoic acids” (Scientist of Fortune, S.A., priority 2010, dated 2015).
# T1: Thermoplasma acidophilum MDP decarboxylase, SEQ ID NO: 2 (Thermoplasma acidophilum, UniProt Q9HIN1)
# T1 construct: Th; His6 (inserted after the initiator methionine) (N); made in house; host or cells: Escherichia coli BL21(DE3)
# T1 sequence (Q9HIN1 1-318): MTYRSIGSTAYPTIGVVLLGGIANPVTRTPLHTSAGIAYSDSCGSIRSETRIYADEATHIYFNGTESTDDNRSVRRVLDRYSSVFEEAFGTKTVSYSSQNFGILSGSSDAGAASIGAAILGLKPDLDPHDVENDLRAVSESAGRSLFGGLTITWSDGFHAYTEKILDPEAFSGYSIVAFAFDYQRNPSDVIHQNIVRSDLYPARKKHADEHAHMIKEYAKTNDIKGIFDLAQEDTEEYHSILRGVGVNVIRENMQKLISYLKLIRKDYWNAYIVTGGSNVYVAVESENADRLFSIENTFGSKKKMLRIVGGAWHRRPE
# T2: Picrophilus torridus MDP decarboxylase, SEQ ID NO: 1 (Picrophilus torridus, UniProt Q6KZB1)
# T2 construct: His6 (inserted after the initiator methionine) (N); made in house; host or cells: Escherichia coli BL21(DE3)
# T2 sequence (Q6KZB1 1-324): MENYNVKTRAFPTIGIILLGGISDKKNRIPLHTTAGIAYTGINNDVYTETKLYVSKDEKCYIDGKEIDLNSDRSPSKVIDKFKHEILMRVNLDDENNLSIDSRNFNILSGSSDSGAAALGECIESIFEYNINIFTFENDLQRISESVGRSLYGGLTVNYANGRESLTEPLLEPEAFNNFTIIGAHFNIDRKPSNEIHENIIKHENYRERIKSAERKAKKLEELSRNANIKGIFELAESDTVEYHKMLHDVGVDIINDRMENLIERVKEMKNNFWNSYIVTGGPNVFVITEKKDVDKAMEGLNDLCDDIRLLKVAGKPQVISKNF
# B1: Streptococcus infantarius MDP decarboxylase, SEQ ID NO: 7 (Streptococcus infantarius subsp. infantarius ATCC BAA-102) (protein)
# chain: MDRKIVTVKSYANIAIIKYWGKADAAKMIPATSSISLTLENMFTTTSVSFLPDSASHDEFYINGVLQDDKEHAKISAIIDQYRGQRSEYVKVETSNNMPTAAGLSSSSSGLSALVKACNELFETGLTRAELAQKAKFASGSSSRSFFGPLAAWDKDSGEVYPVQTDLKLAMIMLVLSDSKKSISSREGMKRCVETSTTFADWVKQSEQDYKDMLGYLKNNDFERVGELTERNALAMHDTNTHANPPFNYLTEESYKAMEFVKQLRSEGEKCYFTMDAGPNVKVLCLEEDLERLTKRFEENYRVIVSRTKEL
# Legend:
# [1] = target: T3, Streptococcus mitis MDP decarboxylase, SEQ ID NO: 10 (Streptococcus mitis, UniProt A0ACG7RFV4); assay: Kinetic parameters of isobutene production from 3-phosphonoxyisovalerate (GC); format: biochemical; conditions: pH 7.5, 37° C., 44 h, 40 mM ATP, 0-100 mM 3-phosphonoxyisovalerate
# Procedure: The kinetic parameters of isobutene production were measured under the following conditions:
# 0-100 mM 3-phosphonoxyisovalerate
# (§1) The pH was adjusted to 7.5
# The reaction was initiated by addition of 1 mg of purified MDP decarboxylase from S. mitis (SEQ ID NO:10) to 0.5 ml of reaction mixture. The mixture was then incubated without shaking at 37° C. for 44 h in a sealed vial of 2 ml (Interchim).
# (§2) One ml of the gaseous phase was collected and injected into a Varian 430-GC gas chromatograph equipped with an FID detector and a CP SilicaPlot column (Varian). Commercial isobutene was used as reference.
# [2] = target: T1, Thermoplasma acidophilum MDP decarboxylase, SEQ ID NO: 2; assay: Phosphotransferase activity (ADP release from 3-hydroxyisovalerate and ATP), pyruvate kinase/lactate dehydrogenase coupled assay; format: biochemical; conditions: 40° C., pH 7.0, 5 mM ATP, 0-50 mM HIV
# Procedure: (§3) The release of ADP that is associated with IBN production from HIV was quantified using the pyruvate kinase/lactate dehydrogenase coupled assay (FIG. 10). The MDP decarboxylases from P. torridus (SEQ ID NO:1), Th. Acidophilum (SEQ ID NO:2), S. infantarius (SEQ ID NO:7), S. mitis (SEQ ID NO:10) were evaluated for their ability to phosphorylate HIV, releasing ADP.
# (§4) The studied enzymatic reaction was carried out under the following conditions at 40° C.:
# (§5) 0.5 mM Phosphoenolpyruvate
# (§6) 3 U/ml Lactate dehydrogenase
# (§7) 0-50 mM 3-Hydroxyisovalerate (HIV)
# (§8) The pH was adjusted to 7.0.
# (§9) Each assay was started by addition of particular enzyme (at a concentration from 0.05 to 1 mg/ml) and the disappearance of NADH was monitored by following the absorbance at 340 nm.
# (§10) Assays with MDP decarboxylases from the P. torridus phylum as well from the Streptococcus genus gave rise to a reproducible increase in ADP production in the presence of HIV.
# [3] = target: T2, Picrophilus torridus MDP decarboxylase, SEQ ID NO: 1; assay: as above; format: biochemical; conditions: 40° C., pH 7.0, 5 mM ATP, 0-50 mM HIV
# Source text: FIG. 12: Isobutene production from 3-hydroxyisovalerate in the following assays: • Without enzyme • In the presence of S. mitis MDP decarboxylase (SEQ ID NO:10) • In the presence of Th. acidophilum MDP decarboxylase (SEQ ID NO:2) • In the presence of both Th. acidophilum (SEQ ID NO:2) and S. mitis (SEQ ID NO:10) enzymes.
# as §3, §4, §5, §6, §7, §8, §9, §10
# [4] = target: T3, Streptococcus mitis MDP decarboxylase, SEQ ID NO: 10; assay: Effect of ATP on isobutene production from 3-phosphonoxyisovalerate (GC); format: biochemical; conditions: 10 mM ATP vs 0 mM ATP, 25 mM PIV, pH 7.5, 37° C., 26 h
# Procedure: The assays of isobutene production were carried out under the following conditions:
# 0 mM ATP (assay No1 and No2)
# 10 mM ATP (assay No3 and No4)
# 25 mM 3-phosphonoxyisovalerate
# as §1
# The reaction was initiated by addition of 2 mg of purified MDP decarboxylase from S. mitis (SEQ ID NO:10) to 0.5 ml of reaction mixture. Control reactions were run in the absence of enzyme (assays No1 and No3).
# The mixture was incubated without shaking at 37° C. for 26 h in a sealed vial of 2 ml (Interchim).
# as §2
# [5] = substrate: CC(C)(O)CC(=O)O; assay: Phosphotransferase activity (ADP release from 3-hydroxyisovalerate and ATP), pyruvate kinase/lactate dehydrogenase coupled assay; format: biochemical, Streptococcus infantarius; conditions: other: 40° C., pH 7.0, 5 mM ATP, 0-50 mM HIV
# Procedure: as §3, §4, §5, §6, §7, §8, §9, §10
molecule,measurement,setting,value
CC(C)(CC(=O)O)OP(=O)(O)O [3-phosphonoxyisovalerate],Km,[1],> 60 mM
same,kcat,[1],at least 1.3×10^−3 sec^−1
CC(C)(O)CC(=O)O [3-hydroxyisovalerate],Km,[2],4.02 mM
same,Km,[3],9.17 mM
Nc1ncnc2c1ncn2[C@@H]1O[C@H](COP(=O)(O)OP(=O)(O)OP(=O)(O)O)[C@@H](O)[C@H]1O [ATP],increase of isobutene production from 3-phosphonoxyisovalerate (PIV) on addition of ATP,[4],120 fold
B1,Km,[5],13.4 mM
same,kcat,[5],0.03 s⁻¹
same,kcat/Km,[5],2 M⁻¹ s⁻¹
